Patent US20120157379A1, “Gastric Inhibitory Peptide Variants and Their Uses” (priority 2009, published 2012)

T1: GIP receptor (GIPR) (Homo sapiens, UniProt P48546)
T1 construct: host or cells: HEK293T
T1 sequence (P48546 22-466): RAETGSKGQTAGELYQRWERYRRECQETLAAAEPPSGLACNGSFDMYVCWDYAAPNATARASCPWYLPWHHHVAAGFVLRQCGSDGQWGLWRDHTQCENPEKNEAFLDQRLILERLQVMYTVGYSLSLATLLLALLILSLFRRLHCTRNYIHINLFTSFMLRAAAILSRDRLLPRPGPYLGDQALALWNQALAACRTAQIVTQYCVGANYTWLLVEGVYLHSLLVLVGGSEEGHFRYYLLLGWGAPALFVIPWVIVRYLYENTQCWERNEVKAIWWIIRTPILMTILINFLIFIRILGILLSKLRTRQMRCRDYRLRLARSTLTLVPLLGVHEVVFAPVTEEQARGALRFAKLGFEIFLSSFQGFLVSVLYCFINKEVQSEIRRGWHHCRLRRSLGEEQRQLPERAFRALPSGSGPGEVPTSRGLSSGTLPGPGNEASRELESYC

T2: recombinant wild type GIP receptor (GIPR) expressed in HEK293T cells (Homo sapiens (Human), UniProt P48546)
T2 sequence: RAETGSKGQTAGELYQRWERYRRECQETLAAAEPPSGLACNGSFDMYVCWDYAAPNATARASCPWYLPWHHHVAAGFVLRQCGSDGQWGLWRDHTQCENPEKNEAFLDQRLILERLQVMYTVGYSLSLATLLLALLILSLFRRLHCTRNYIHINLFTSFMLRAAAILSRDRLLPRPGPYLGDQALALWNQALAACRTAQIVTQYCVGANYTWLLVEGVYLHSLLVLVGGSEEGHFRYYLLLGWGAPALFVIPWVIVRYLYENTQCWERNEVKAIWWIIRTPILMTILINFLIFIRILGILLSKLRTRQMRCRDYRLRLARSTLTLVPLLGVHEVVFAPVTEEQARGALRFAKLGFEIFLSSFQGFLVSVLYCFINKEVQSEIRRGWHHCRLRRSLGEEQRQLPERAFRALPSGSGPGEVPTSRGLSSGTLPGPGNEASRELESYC


Assays:
[1] = system: fasting Sprague-Dawley rats; test: In vivo glucose suppression assay; set-up: species or system rat; conditions: for blood glucose after exogenous glucose: 100 nmoles/kg peptide with glucose 3.8 g/kg intraperitoneal, 1 hr after injection
Protocol: The in vivo glucose suppression assay. Eight-week-old Sprague-Dawley rats were fasted overnight for 20 hours. […] Bloods were obtained via the tail vein at select time points after intraperitoneal injection of glucose with a peptide. Glucose levels in the blood were measured by an OneTouch Ultra Blood Glucose Monitoring System and OneTouch Ultra Test Strips (Johnson and Johnson).

[2] = Resistance to serum degradation: peptides incubated with human serum at 37 C, then tested for receptor activation; conditions: pooled normal human serum or pooled complement-preserved human serum, in vitro
Protocol: (§1) Vector, transfection, and receptor-activation assay. […] The treated peptides were frozen at −80 C before testing with transfected cells. Receptor-activation activities were assayed based on cAMP production in transfected cells, and were performed as described44. The receptor-activation results were analyzed using the GraphPad Prism 5 package.

GIP receptor (GIPR) = molecular target: T1, GIP receptor (GIPR); test: Receptor-activation assay: cAMP production in HEK293T cells expressing recombinant GIP receptor; assay type: cell-based; conditions: for EC50: EC50 values (-Log EC50, mean ± SEM)
Protocol: as §1

[3] = molecular target: T2, recombinant wild type GIP receptor …; test: cell-based or functional assay
[4] = molecular target: T2, recombinant wild type GIP receptor …; test: cell-based or functional assay; remark: listed apart in the source

Molecule	blood glucose after exogenous glucose [1]	resistance to degradation by human serum, relative to GIP [2]	-Log EC50 of cAMP production; peptide incubated 0 hr with pooled complement preserved human serum [3]	-Log EC50 of cAMP production; peptide incubated 0 hr with pooled human serum [3]	-Log EC50 of cAMP production; peptide incubated 3 hr with pooled complement preserved human serum [3]	-Log EC50 of cAMP production; peptide incubated 3 hr with pooled human serum [3]	-Log EC50 of cAMP production; peptide incubated 6 hr with pooled complement preserved human serum [3]	-Log EC50 of cAMP production; peptide incubated 6 hr with pooled human serum [3]	-Log EC50 of cAMP production; peptide incubated 12 hr with pooled complement preserved human serum [3]	-Log EC50 of cAMP production; peptide incubated 12 hr with pooled human serum [3]	EC50 of cAMP production in GIPR-expressing HEK293T cells [4] [nM]	further results
CC[C@H](C)[C@H](NC(=O)[C@H](CO)NC(=O)[C@H](Cc1ccc(O)cc1)NC(=O)[C@H](CC(=O)O)NC(=O)[C@H](CO)NC(=O)[C@@H](NC(=O)[C@H](Cc1ccccc1)NC(=O)[C@@H](NC(=O)CNC(=O)[C@H](CCC(=O)O)NC(=O)[C@H](C)NC(=O)[C@@H](N)Cc1ccc(O)cc1)[C@@H](C)O)[C@@H](C)CC)C(=O)N[C@@H](C)C(=O)N[C@@H](CCSC)C(=O)N[C@@H](CC(=O)O)C(=O)N[C@@H](CCCCN)C(=O)N[C@H](C(=O)N[C@@H](Cc1c[nH]cn1)C(=O)N[C@@H](CCC(N)=O)C(=O)N[C@@H](CCC(N)=O)C(=O)N[C@@H](CC(=O)O)C(=O)N[C@@H](Cc1ccccc1)C(=O)N[C@H](C(=O)N[C@@H](CC(N)=O)C(=O)N[C@@H](Cc1c[nH]c2ccccc12)C(=O)N[C@@H](CC(C)C)C(=O)N[C@@H](CC(C)C)C(=O)N[C@@H](C)C(=O)N[C@@H](CCC(N)=O)C(=O)N[C@@H](CCCCN)C(=O)NCC(=O)N[C@@H](CCCCN)C(=O)N[C@@H](CCCCN)C(=O)N[C@@H](CC(N)=O)C(=O)N[C@@H](CC(=O)O)C(=O)N[C@@H](Cc1c[nH]c2ccccc12)C(=O)N[C@@H](CCCCN)C(=O)N[C@@H](Cc1c[nH]cn1)C(=O)N[C@@H](CC(N)=O)C(=O)N[C@H](C(=O)N[C@H](C(=O)N[C@@H](CCC(N)=O)C(=O)O)[C@@H](C)O)[C@@H](C)CC)C(C)C)[C@@H](C)CC [GIP, Gastric inhibitory polypeptide, reference compound]	reduced glucose contents in the blood to basal levels	–	–	–	–	–	–	–	–	–	–	–
CC[C@H](C)[C@H](NC(=O)[C@H](CO)NC(=O)[C@H](Cc1ccc(O)cc1)NC(=O)[C@H](CC(=O)O)NC(=O)[C@H](CO)NC(=O)[C@@H](NC(=O)[C@H](Cc1ccccc1)NC(=O)[C@@H](NC(=O)CNC(=O)[C@H](CCC(=O)O)NC(=O)[C@H](C)NC(=O)[C@@H](N)Cc1ccc(O)cc1)[C@@H](C)O)[C@@H](C)CC)C(=O)N[C@@H](C)C(=O)N[C@@H](CCSC)C(=O)N[C@@H](CC(=O)O)C(=O)N[C@@H](CCCCN)C(=O)N[C@H](C(=O)N[C@@H](Cc1c[nH]cn1)C(=O)N[C@@H](CCC(N)=O)C(=O)N[C@@H](CCC(N)=O)C(=O)N[C@@H](CC(=O)O)C(=O)N[C@@H](Cc1ccccc1)C(=O)N[C@H](C(=O)N[C@@H](CC(N)=O)C(=O)N[C@@H](Cc1c[nH]c2ccccc12)C(=O)N[C@@H](CC(C)C)C(=O)N[C@@H](CC(C)C)C(=O)N[C@@H](C)C(=O)N[C@@H](CCC(N)=O)C(=O)N[C@@H](CCCCN)C(=O)NCC(=O)N[C@@H](CCCCN)C(=O)N[C@@H](CCCCN)C(=O)N[C@@H](CC(N)=O)C(=O)N[C@@H](CC(=O)O)C(=O)N[C@@H](Cc1c[nH]c2ccccc12)C(=O)N[C@@H](CCCCN)C(=O)N[C@@H](Cc1c[nH]cn1)C(=O)N[C@@H](CC(N)=O)C(=O)N[C@H](C(=O)N[C@H](C(=O)N[C@@H](CCC(N)=O)C(=O)N[C@@H](CCCNC(=N)N)C(=O)N[C@@H](CCC(=O)O)C(=O)N[C@@H](C)C(=O)N[C@@H](CCCNC(=N)N)C(=O)N[C@@H](C)C(=O)N[C@@H](CC(C)C)C(=O)N[C@@H](CCC(=O)O)C(=O)N[C@@H](CC(C)C)C(=O)N[C@@H](C)C(=O)NCC(=O)N[C@@H](CCC(N)=O)C(=O)N[C@@H](C)C(=O)N[C@@H](CC(N)=O)C(=O)O)[C@@H](C)O)[C@@H](C)CC)C(C)C)[C@@H](C)CC [GIP55G]	–	significantly more resistant to degradation	–	–	–	–	–	–	–	–	–	–
CC[C@H](C)[C@H](NC(=O)[C@H](CO)NC(=O)[C@H](Cc1ccc(O)cc1)NC(=O)[C@H](CC(=O)O)NC(=O)[C@H](CO)NC(=O)[C@@H](NC(=O)[C@H](Cc1ccccc1)NC(=O)[C@@H](NC(=O)CNC(=O)[C@H](CCC(=O)O)NC(=O)[C@H](C)NC(=O)[C@@H](N)Cc1ccc(O)cc1)[C@@H](C)O)[C@@H](C)CC)C(=O)N[C@@H](C)C(=O)N[C@@H](CCSC)C(=O)N[C@@H](CC(=O)O)C(=O)N[C@@H](CCCCN)C(=O)N[C@H](C(=O)N[C@@H](Cc1c[nH]cn1)C(=O)N[C@@H](CCC(N)=O)C(=O)N[C@@H](CCC(N)=O)C(=O)N[C@@H](CC(=O)O)C(=O)N[C@@H](Cc1ccccc1)C(=O)N[C@H](C(=O)N[C@@H](CC(N)=O)C(=O)N[C@@H](Cc1c[nH]c2ccccc12)C(=O)N[C@@H](CC(C)C)C(=O)N[C@@H](CC(C)C)C(=O)N[C@@H](C)C(=O)N[C@@H](CCC(N)=O)C(=O)N[C@@H](CCCCN)C(=O)NCC(=O)N[C@@H](CCCCN)C(=O)N[C@@H](CCCCN)C(=O)N[C@@H](CC(N)=O)C(=O)N[C@@H](CC(=O)O)C(=O)N[C@@H](Cc1c[nH]c2ccccc12)C(=O)N[C@@H](CCCCN)C(=O)N[C@@H](Cc1c[nH]cn1)C(=O)N[C@@H](CC(N)=O)C(=O)N[C@H](C(=O)N[C@H](C(=O)N[C@@H](CCC(N)=O)C(=O)N[C@@H](CCCNC(=N)N)C(=O)N[C@@H](CCC(=O)O)C(=O)N[C@@H](C)C(=O)N[C@@H](CCCNC(=N)N)C(=O)N[C@@H](C)C(=O)N[C@@H](CC(C)C)C(=O)N[C@@H](CCC(=O)O)C(=O)N[C@@H](CC(C)C)C(=O)N[C@@H](C)C(=O)N[C@@H](CO)C(=O)N[C@@H](CCC(N)=O)C(=O)N[C@@H](C)C(=O)N[C@@H](CC(N)=O)C(=O)O)[C@@H](C)O)[C@@H](C)CC)C(C)C)[C@@H](C)CC [GIP55S]	reduced glucose contents in the blood to basal levels	significantly more resistant to degradation	–	–	–	–	–	–	–	–	–	suppression of hyperglycemia ([1]; compared with conventional mature GIP): suppress hyperglycemias to similar extents; ranking of potency (GIP receptor (GIPR); 0 hr of human serum treatment (normal or complement preserved)): GIP>GIP55G>GIP55S; ranking of potency (GIP receptor (GIPR); 6 hr after treatment with human serum (normal or complement preserved)): GIP=GIP55G=GIP55S; ranking of potency (GIP receptor (GIPR); 12 hr after treatment with human serum (normal or complement preserved)): GIP55G>GIP55S≧GIP; lower potency relative to conventional GIP (GIP receptor (GIPR); EC50 compared with GIP, no serum treatment): ~3 fold; EC50 (GIP receptor (GIPR); with pooled complement preserved human serum, 0 hours of incubation): 3.72 nM; EC50 (GIP receptor (GIPR); with pooled complement preserved human serum, 3 hours of incubation): 3.24 nM; EC50 (GIP receptor (GIPR); with pooled complement preserved human serum, 6 hours of incubation): 16.2 nM; EC50 (GIP receptor (GIPR); with pooled complement preserved human serum, 12 hours of incubation): 75.9 nM; EC50 (GIP receptor (GIPR); with pooled human serum, 0 hours of incubation): 2.75 nM; EC50 (GIP receptor (GIPR); with pooled human serum, 3 hours of incubation): 4.57 nM; EC50 (GIP receptor (GIPR); with pooled human serum, 6 hours of incubation): 18.2 nM; EC50 (GIP receptor (GIPR); with pooled human serum, 12 hours of incubation): 41.7 nM; cAMP production in GIP receptor-expressing HEK293T cells (GIP receptor (GIPR); cells treated with synthetic peptides for 12 hr, total cAMP in cell lysates): dose-dependent increases of cAMP production
GIP55G, extended 55-amino-acid GIP isoform encoded by the derived G-44394131 allele (G103) (ligand) peptide: YAEGTFISDYSIAMDKIHQQDFVNWLLAQKGKKNDWKHNITQREARALELAGQAN	–	–	8.51 -Log EC50	8.47 -Log EC50	8.22 -Log EC50	8.32 -Log EC50	7.88 -Log EC50	8.02 -Log EC50	7.86 -Log EC50	7.93 -Log EC50	3.2	–
GIP55S, extended 55-amino-acid GIP isoform encoded by the ancestral A-44394131 allele (S103) (ligand) peptide: YAEGTFISDYSIAMDKIHQQDFVNWLLAQKGKKNDWKHNITQREARALELASQAN	–	–	8.43 -Log EC50	8.56 -Log EC50	8.49 -Log EC50	8.34 -Log EC50	7.79 -Log EC50	7.74 -Log EC50	7.12 -Log EC50	7.38 -Log EC50	2.6	–
